Test results: patent US5196437A, “Method for treating hepatic diseases and regenerating liver tissue using FK 506 and related compounds” (Fujisawa Pharmaceutical Company, Ltd., priority 1990, dated 1993)

How the values were obtained:
hepatocytes = test: Eck fistula dogs, left portal vein infusion: hepatocyte size and 3H-thymidine labelled hepatocytes; format: in vivo, dog (beagle); settings: for Labeled Hepatocytes/1000 Hepatocytes, Left / Hepatocytes Size Units, Left: left (infused) lobe; for Labeled Hepatocytes/1000 Hepatocytes, Left / Hepatocytes Size Units, Left / Hepatocytes Size Units, Right / Labeled Hepatocytes/1000 Hepatocytes, Right: mean +/- SD; for Hepatocytes Size Units, Right / Labeled Hepatocytes/1000 Hepatocytes, Right: right lobe
Protocol: (§1) Twenty adult female beagle dogs underwent Eck fistula (Starzl et al, Lancet, 1976, 1:821-25). After performing a large side to side portacaval shunt, the left and right portal vein branches were ligated. A small infusion catheter was tied into the left branch and led through the abdominal wall and subcutaneously to a battery charged infusion pump that was incorporated into a non-restraining body cast. A constant infusion was started of the control or test fluids at the volume of 20 to 30 ml/day. Oral fluids and diet were allowed ad lib. Four days later, the animals were administered 0.2 mCi/kg (CH3 -^3 H)-thymidine with specific activity of 80-90 Ci/MMol (New England Nuclear, Boston). Two hours later, the dogs were anesthetized and killed.
Specimens were taken from 2 of the right hepatic lobes and 2 of the left lobes, fixed in 10% buffered formalin, and stained using standard hematoxylin-eosin staining techniques.
Autoradiography was carried out using Ilford K5 nuclear track liquid emulsion and an exposure time of at least 30 days. The number of mitoses, as an index of hepatocyte regeneration, was determined by counting the number of ^3 H-thymidine labelled nuclei per 1000 hepatocytes. […] In normal, unaltered dogs, about 1.6±0.4 mitosis per 1000 hepatocytes are present in the liver, and midzonal hepatocytes are about 0.17±0.01 size-units (Starzl et al, Lancet, 1979, 1:127-130). The exceptional reproducibility of these values and the small standard deviations make it easy to identify changes caused by operations such as Eck fistula, drugs, or other experimental variables.
(§2) Results are expressed as mean±standard deviation (SD). The Student's t-test was employed in individual experimental groups to compare differences between right and left lobes or between groups. A p value less than 0.05 was considered to be significant.

hepatocytes in culture = settings: literature (Francavilla et al); cited from earlier work
[1] = system: hepatocytes / rat liver regeneration; test: Rat liver regeneration (3H-thymidine incorporation into hepatic DNA and hepatocyte mitosis) after sham operation or 40%/70% hepatectomy; format: in vivo, rat (Fisher 344); settings: for 3H-thymidine incorporation / Proportion of hepatocytes in mitosis: 4 days, mean (SE)
Protocol: Adult male inbred Fisher 344 rats weighing 180-200 g were purchased from Hilltop Lab Animals Inc (Scottdale, Pa.). The animals were given standard rat laboratory diet and water ad libitum in a temperature and light controlled room (light 0730-1930). […] Animals in groups 3 and 4 had sham operations in which the liver was manipulated at laparotomy. Food and drink were allowed immediately. Parenteral fluid and electrolyte support were not required.
24 h after the hepatectomies, 185×10^4 Bq ^3 H-thymidine was administered to all rats by intraperitoneal injection. The rats, including groups 1 and 2, were killed 2 h later by guillotine. Extraction and purification of hepatic DNA were done with the method of Ove et al (Liver and hormones, New York: Raven Press, 1987:265-76) and DNA content was measured with calf thymus DMA (Sigma) as standard. Specimens from each liver were prepared for histological examination with hematoxylin and eosin and the proportion of hepatocytes in mitosis was counted. All results are means and SE.

[2] = system: acute and chronic liver allograft rejection; settings: humans; compared with previous compounds; cited from earlier work
midzonal hepatocytes = test: Eck fistula dogs, left portal vein infusion: electron microscopy of hepatocyte organelles; format: in vivo, dog (beagle); settings: 0.01 mg/kg/day, mean +/- SD
Protocol: as §1
For studies of the organelles, small cubes of each hepatic sample were taken for electron microscopy. The tissue was post-fixed in glutaraldehyde followed by osmic acid. After embedding in Polarbed. 812 resin, ultrathin sections were cut, stained with lead citrate and examined in a Philip's 300 electron microscope. Measurements of the organelles were made on electron micrographs by Loud's method (Loud, J Cell Biol, 1968, 37:27-46).
as §2

[3] = infused into the left portal vein
[4] = group 2: FK 506 1 mg/kg IM, no operation
[5] = group 10: FK 506 1 mg/kg IM, 70% hepatectomy, p < 0.01 vs group 8

C=CCC1C=C(C)CC(C)CC(OC)C2OC(O)(C(=O)C(=O)N3CCCCC3C(=O)OC(C(C)=CC3CCC(O)C(OC)C3)C(C)C(O)CC1=O)C(C)CC2OC (centres unmarked) [FK 506]
Labeled Hepatocytes/1000 Hepatocytes, Left (hepatocytes; 0.01 mg/kg/day, p vs vehicle 0.0044, left vs right 0.0167): 5.43 +/- .35 Labeled Hepatocytes/1000 Hepat
Hepatocytes Size Units, Left (hepatocytes; 0.01 mg/kg/day, p vs vehicle 0.5782, left vs right 0.0004): .111 +/- .008 Size Units
Hepatocytes Size Units, Right (hepatocytes; 0.01 mg/kg/day, p vs vehicle 0.1860): .100 +/- .007 Size Units
Labeled Hepatocytes/1000 Hepatocytes, Right (hepatocytes; 0.01 mg/kg/day, p vs vehicle 0.2477): 4.77 +/- .60 Labeled Hepatocytes/1000 Hepat
Labeled Hepatocytes/1000 Hepatocytes, Left (hepatocytes; 0.1 mg/kg/day, p vs vehicle 0.0005, left vs right 0.0001): 5.98 +/- .43 Labeled Hepatocytes/1000 Hepat
Hepatocytes Size Units, Left (hepatocytes; 0.1 mg/kg/day, p vs vehicle 0.0065, left vs right 0.0000): .137 +/- .008 Size Units
Labeled Hepatocytes/1000 Hepatocytes, Right (hepatocytes; 0.1 mg/kg/day, p vs vehicle 0.0086): 5.19 +/- .38 Labeled Hepatocytes/1000 Hepat
Hepatocytes Size Units, Right (hepatocytes; 0.1 mg/kg/day, p vs vehicle 0.8351): .113 +/- .006 Size Units
Labeled Hepatocytes/1000 Hepatocytes, Left (hepatocytes; 1.0 mg/kg/day, p vs vehicle 0.0001, left vs right 0.0015): 9.13 +/- .89 Labeled Hepatocytes/1000 Hepat
Hepatocytes Size Units, Left (hepatocytes; 1.0 mg/kg/day, p vs vehicle 0.0004, left vs right 0.0009): .162 +/- .012 Size Units
Hepatocytes Size Units, Right (hepatocytes; 1.0 mg/kg/day, p vs vehicle 0.0503): .134 +/- .006 Size Units
Labeled Hepatocytes/1000 Hepatocytes, Right (hepatocytes; 1.0 mg/kg/day, p vs vehicle 0.0510): 5.37 +/- .78 Labeled Hepatocytes/1000 Hepat
changes in directly infused lobes compared with non-infused lobes (hepatocytes; all doses): significantly greater in the directly infused lobes at all doses
changes in non-infused lobes compared to vehicle controls (hepatocytes; high FK 506 doses): significantly effected compared to the vehicle controls
atrophy of the left lobar hepatocytes (hepatocytes; [3]): prevented in proportion to the dose
rate of mitoses (hepatocytes; [3]): increased
evidence of drug toxicity in infused lobes (hepatocytes; lobes infused with FK 506): no evidence of drug toxicity
direct effect on hepatocytes in culture (hepatocytes in culture): no direct effect
regeneration after hepatectomy compared with controls ([1]; 4 days pretreatment, intramuscular FK 506 or oral cyclosporin): significantly augmented compared with controls
hepatocyte mitosis and DNA synthesis in sham operation group ([1]; FK 506 added to sham operation): further and significantly increased
3H-thymidine incorporation [1, 4]: 3.2 × 10^3 cpm/mg DNA
Proportion of hepatocytes in mitosis [1, 4]: 1.7%
3H-thymidine incorporation ([1]; group 4: FK 506 1 mg/kg IM, sham operation, p < 0.005 vs groups 1, 2 and 3): 10.5 × 10^3 cpm/mg DNA
Proportion of hepatocytes in mitosis ([1]; group 4: FK 506 1 mg/kg IM, sham operation, p < 0.05 vs groups 1 and 2): 9.5%
3H-thymidine incorporation ([1]; group 6: FK 506 1 mg/kg IM, 40% hepatectomy, p < 0.001 vs group 5): 32.4 × 10^3 cpm/mg DNA
3H-thymidine incorporation [1, 5]: 242.0 × 10^3 cpm/mg DNA
Proportion of hepatocytes in mitosis [1, 5]: 59.0%
regeneration effect, FK 506 compared with cyclosporin ([1]; group 10 compared with group 9, 70% hepatectomy): greater with FK 506 than with cyclosporin
resting hepatocyte mitosis or DNA synthesis ([1]; unoperated rats): did not increase
acute and chronic liver allograft rejection [2]: prevent acute and chronic liver allograft rejection in humans more reliably and completely than has been possible with previous compounds
Organelle volume in average midzonal hepatocytes, Lipids, Left (midzonal hepatocytes; left (infused) lobe, left vs right p 0.0012): 23.3 +/- 8.8 uM^3
Organelle volume in average midzonal hepatocytes, Lysosomes, Left (midzonal hepatocytes; left (infused) lobe, left vs right p 0.0017): 62.3 +/- 15.1 uM^3
Organelle volume in average midzonal hepatocytes, Microbodies, Left (midzonal hepatocytes; left (infused) lobe, left vs right p 0.0080): 99.2 +/- 11.8 uM^3
Organelle volume in average midzonal hepatocytes, Mitochondria, Left (midzonal hepatocytes; left (infused) lobe, left vs right p 0.1903): 1233.7 +/- 222.4 uM^3
Area of rough endoplasmic reticulum per average midzonal hepatocyte, Left (midzonal hepatocytes; left (infused) lobe, p vs vehicle 0.0000, left vs right 0.0001): 26332 +/- 1483 uM^2
Area of smooth endoplasmic reticulum per average midzonal hepatocyte, Left (midzonal hepatocytes; left (infused) lobe, p vs vehicle 0.0661, left vs right 0.0000): 18433 +/- 535 uM^2
Organelle volume in average midzonal hepatocytes, Lipids, Right (midzonal hepatocytes; right lobe): 81.0 +/- 15.1 uM^3
Organelle volume in average midzonal hepatocytes, Lysosomes, Right (midzonal hepatocytes; right lobe): 162.6 +/- 48.9 uM^3
